Measurements reported in PubChem BioAssay (NCI).
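Cultured in 96-well plates, cells were exposed to test compound for 48 hours across five concentrations. TGI marks complete inhibition of growth.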

How the values were obtained:
Assay in all cases: growth of human tumour cells (NCI), 48 h
HL-60(TB) leukemia = test system: HL-60(TB) leukemia
NCI-H226 lung = test system: NCI-H226 lung
HS 578T breast = test system: HS 578T breast
SK-MEL-28 melanoma = test system: SK-MEL-28 melanoma
U251 CNS = test system: U251 CNS
NCI-H522 lung = test system: NCI-H522 lung
786-0 renal = test system: 786-0 renal
MDA-N = test system: MDA-N
RXF 393 renal = test system: RXF 393 renal
SN12C renal = test system: SN12C renal
CAKI-1 renal = test system: CAKI-1 renal
OVCAR-8 ovarian = test system: OVCAR-8 ovarian
DU-145 prostate = test system: DU-145 prostate
SNB-75 CNS = test system: SNB-75 CNS
UO-31 renal = test system: UO-31 renal
PC-3 prostate = test system: PC-3 prostate
T-47D breast = test system: T-47D breast
COLO 205 colon = test system: COLO 205 colon
HCT-116 colon = test system: HCT-116 colon
TK-10 renal = test system: TK-10 renal
SR leukemia = test system: SR leukemia
NCI/ADR-RES ovarian = test system: NCI/ADR-RES ovarian
A549 NSCLC = test system: A549 NSCLC
MOLT-4 leukemia = test system: MOLT-4 leukemia
EKVX NSCLC = test system: EKVX NSCLC
K-562 leukemia = test system: K-562 leukemia
NCI-H23 lung = test system: NCI-H23 lung
OVCAR-5 ovarian = test system: OVCAR-5 ovarian
HOP-62 NSCLC = test system: HOP-62 NSCLC
HCT-15 colon = test system: HCT-15 colon
HCC-2998 colon = test system: HCC-2998 colon
OVCAR-3 ovarian = test system: OVCAR-3 ovarian
SF-268 CNS = test system: SF-268 CNS
SW-620 colon = test system: SW-620 colon
LOX IMVI melanoma = test system: LOX IMVI melanoma
SF-295 CNS = test system: SF-295 CNS
MDA-MB-231 breast = test system: MDA-MB-231 breast
SNB-19 CNS = test system: SNB-19 CNS
SK-MEL-5 melanoma = test system: SK-MEL-5 melanoma
UACC-257 melanoma = test system: UACC-257 melanoma
UACC-62 melanoma = test system: UACC-62 melanoma
ACHN renal = test system: ACHN renal
IGROV1 ovarian = test system: IGROV1 ovarian
RPMI-8226 leukemia = test system: RPMI-8226 leukemia
A498 renal = test system: A498 renal
MDA-MB-435 = test system: MDA-MB-435
BT-549 breast = test system: BT-549 breast
MCF7 breast = test system: MCF7 breast
NCI-H460 lung = test system: NCI-H460 lung
M14 melanoma = test system: M14 melanoma
CCRF-CEM leukemia = test system: CCRF-CEM leukemia
OVCAR-4 ovarian = test system: OVCAR-4 ovarian
MALME-3M melanoma = test system: MALME-3M melanoma
KM12 colon = test system: KM12 colon
SK-MEL-2 melanoma = test system: SK-MEL-2 melanoma
SK-OV-3 ovarian = test system: SK-OV-3 ovarian
HOP-92 NSCLC = test system: HOP-92 NSCLC
HT29 colon = test system: HT29 colon
SF-539 CNS = test system: SF-539 CNS

For `CCOC(=O)c1cc2c3ccn(Cc4ccccc4)c3c3c(C)[nH]oc3c2n1`, the TGI (HL-60(TB) leukemia) was over 100 µM, the TGI (NCI-H226 lung) was over 100 µM and the TGI (HS 578T breast) was over 100 µM. It also gave a TGI (SK-MEL-28 melanoma) of over 100 µM, a TGI (U251 CNS) of over 100 µM and a TGI (NCI-H522 lung) of over 100 µM. The TGI (786-0 renal) was over 100 µM, the TGI (MDA-N) was over 100 µM and the TGI (RXF 393 renal) was over 100 µM. The TGI (SN12C renal) was over 100 µM, the TGI (CAKI-1 renal) was over 100 µM and the TGI (OVCAR-8 ovarian) was over 100 µM. For the same compound, the TGI (DU-145 prostate) was over 100 µM, the TGI (SNB-75 CNS) was over 100 µM and the TGI (UO-31 renal) was over 100 µM. For the same compound, the TGI (PC-3 prostate) was over 100 µM, the TGI (T-47D breast) was over 100 µM and the TGI (COLO 205 colon) was over 100 µM. The TGI (HCT-116 colon) was over 100 µM, the TGI (TK-10 renal) was over 100 µM and the TGI (SR leukemia) was over 100 µM. It also gave a TGI (NCI/ADR-RES ovarian) of over 100 µM, a TGI (A549 NSCLC) of over 100 µM and a TGI (MOLT-4 leukemia) of over 100 µM. It also gave a TGI (EKVX NSCLC) of over 100 µM, a TGI (K-562 leukemia) of over 100 µM and a TGI (NCI-H23 lung) of over 100 µM. It also gave a TGI (OVCAR-5 ovarian) of over 100 µM, a TGI (HOP-62 NSCLC) of over 100 µM and a TGI (HCT-15 colon) of over 100 µM. For the same compound, the TGI (HCC-2998 colon) was over 100 µM, the TGI (OVCAR-3 ovarian) was over 100 µM and the TGI (SF-268 CNS) was over 100 µM. The TGI (SW-620 colon) was over 100 µM, the TGI (LOX IMVI melanoma) was over 100 µM and the TGI (SF-295 CNS) was over 100 µM. For the same compound, the TGI (MDA-MB-231 breast) was over 100 µM, the TGI (SNB-19 CNS) was over 100 µM and the TGI (SK-MEL-5 melanoma) was over 100 µM. For the same compound, the TGI (UACC-257 melanoma) was over 100 µM, the TGI (UACC-62 melanoma) was over 100 µM and the TGI (ACHN renal) was over 100 µM. The TGI (IGROV1 ovarian) was over 100 µM, the TGI (RPMI-8226 leukemia) was over 100 µM and the TGI (A498 renal) was over 100 µM. It also gave a TGI (MDA-MB-435) of over 100 µM, a TGI (BT-549 breast) of over 100 µM and a TGI (MCF7 breast) of over 100 µM. The TGI (NCI-H460 lung) was over 100 µM, the TGI (M14 melanoma) was over 100 µM and the TGI (CCRF-CEM leukemia) was over 100 µM. For the same compound, the TGI (OVCAR-4 ovarian) was over 100 µM, the TGI (MALME-3M melanoma) was over 100 µM and the TGI (KM12 colon) was over 100 µM. It also gave a TGI (SK-MEL-2 melanoma) of over 100 µM.

`Clc1ccc(-c2cc3nc4ccccc4nc3o2)cc1` was tested, and the TGI (HL-60(TB) leukemia) was over 100 µM, the TGI (NCI-H226 lung) was over 100 µM and the TGI (HS 578T breast) was over 100 µM. For the same compound, the TGI (SK-MEL-28 melanoma) was over 100 µM, the TGI (U251 CNS) was over 100 µM and the TGI (786-0 renal) was over 100 µM. The TGI (MDA-N) was over 100 µM, the TGI (SK-OV-3 ovarian) was over 100 µM and the TGI (RXF 393 renal) was 90 µM. For the same compound, the TGI (CAKI-1 renal) was over 100 µM, the TGI (OVCAR-8 ovarian) was over 100 µM and the TGI (DU-145 prostate) was over 100 µM. The TGI (SNB-75 CNS) was 48.3 µM, the TGI (UO-31 renal) was over 100 µM and the TGI (PC-3 prostate) was over 100 µM. It also gave a TGI (T-47D breast) of over 100 µM, a TGI (COLO 205 colon) of over 100 µM and a TGI (HCT-116 colon) of over 100 µM. The TGI (TK-10 renal) was over 100 µM, the TGI (SR leukemia) was over 100 µM and the TGI (NCI/ADR-RES ovarian) was over 100 µM. It also gave a TGI (A549 NSCLC) of over 100 µM, a TGI (MOLT-4 leukemia) of over 100 µM and a TGI (EKVX NSCLC) of over 100 µM. The TGI (K-562 leukemia) was over 100 µM, the TGI (NCI-H23 lung) was over 100 µM and the TGI (OVCAR-5 ovarian) was over 100 µM. For the same compound, the TGI (HOP-92 NSCLC) was over 100 µM, the TGI (HCT-15 colon) was over 100 µM and the TGI (HCC-2998 colon) was over 100 µM. It also gave a TGI (OVCAR-3 ovarian) of over 100 µM, a TGI (SF-268 CNS) of over 100 µM and a TGI (HT29 colon) of over 100 µM. The TGI (SW-620 colon) was over 100 µM, the TGI (LOX IMVI melanoma) was over 100 µM and the TGI (SF-295 CNS) was over 100 µM. The TGI (MDA-MB-231 breast) was over 100 µM, the TGI (SNB-19 CNS) was over 100 µM and the TGI (SF-539 CNS) was over 100 µM. The TGI (SK-MEL-5 melanoma) was over 100 µM, the TGI (UACC-257 melanoma) was over 100 µM and the TGI (UACC-62 melanoma) was over 100 µM. It also gave a TGI (ACHN renal) of over 100 µM, a TGI (IGROV1 ovarian) of over 100 µM and a TGI (RPMI-8226 leukemia) of over 100 µM. For the same compound, the TGI (A498 renal) was over 100 µM, the TGI (MDA-MB-435) was over 100 µM and the TGI (BT-549 breast) was over 100 µM. For the same compound, the TGI (MCF7 breast) was over 100 µM, the TGI (NCI-H460 lung) was over 100 µM and the TGI (M14 melanoma) was over 100 µM. It also gave a TGI (CCRF-CEM leukemia) of over 100 µM, a TGI (OVCAR-4 ovarian) of over 100 µM and a TGI (MALME-3M melanoma) of over 100 µM. For the same compound, the TGI (KM12 colon) was over 100 µM and the TGI (SK-MEL-2 melanoma) was over 100 µM.
